Results taken from patent US20100075926A1, “ACTIVATION OF HISTONE DEACETYLASE 1 (HDAC1) PROTECTS AGAINST DNA DAMAGE AND INCREASES NEURONAL SURVIVAL” (priority 2008, published 2010).

Experiments:
[1] = target: T1, recombinant human HDAC1 (Homo sapiens, UniProt Q13547); assay: Caliper mobility shift deacetylase assay, HDAC1; type: biochemical; conditions: at the indicated concentration (8-40 μM); avg. n = 2; relative to DMSO
T1 construct: purchased BPS Biosciences
Text: (§1) Values indicate % deacetylase inhibition (avg. n=2) relative to a solvent (DMSO) control treatment measured using recombinant human HDAC1 or HDAC2 and Caliper's mobility shift assay technology. Circle color corresponds to compounds shaded by degree of HDAC1 activity (red, decreased; blue, increased). (A) Complete dataset with box outlined with the red dashes corresponding to the region shown highlighted in (B), which in the assay corresponds to negative inhibition.
(§2) To identify small molecule activators of HDAC1, a diverse collection of 1,760 small molecules composed of synthetic compounds, natural products, and a subset of FDA approved drugs were arrayed in 384-well plates as ˜10 mM dimethylsulphoxide (DMSO) stocks. To identify modulators (both activators and inhibitors) of HDACs, a fluorescence-based assay that utilizes Caliper's mobility shift assay technology (Hopkinton, Mass.) was used. This assay is based on the electrophoretic separation of N-acetyl lysine peptide substrate from the deacetylated product, which bears an additional positive charge. […] The product and substrate in each independent reaction were separated using a microfluidic chip (Caliper Life Sciences) run on a Caliper LC3000 (Caliper Life Sciences). The product and substrate fluorophore were excited at 488 nm and detected at 530 nm. Substrate conversion was calculated from the electrophoregram using HTS Well Analyzer software (Caliper Life Sciences). Since the amount of converted substrate is measured, and the reactions were performed at the Km for each enzyme, it is possible to identify both inhibitors and activators of HDACs using this assay.
(§3) Using the mobility shift assay, all compounds were screened in duplicate using a panel of class I and class II HDACs and a N-acetyl lysine peptide substrate. For class I HDACs, HDAC1, HDAC2, and HDAC8 were used. For class IIb HDACs, HDAC6 and to HDAC10 were used. Compounds were incubated for 18-24 hrs and the percent inhibition (avg. n=2) relative to a solvent (DMSO) control treatment of each compound determined through measurement of substrate conversion. […] FIG. 11 provides a list of all of the structures that activated HDAC1 by a value of 5% or greater.

[2] = target: T2, recombinant human HDAC2 (Homo sapiens, UniProt Q92769); assay: Caliper mobility shift deacetylase assay, HDAC2; type: biochemical; conditions: at the indicated concentration (8-40 μM); avg. n = 2; relative to DMSO
T2 construct: purchased BPS Biosciences
Text: as §1, §2, §3

[3] = target: T3, recombinant human HDAC8 (Homo sapiens, UniProt Q9BY41); assay: Caliper mobility shift deacetylase assay, HDAC8; type: biochemical; conditions: at the indicated concentration (8-40 μM); avg. n = 2; relative to DMSO
T3 sequence (Q9BY41 1-377): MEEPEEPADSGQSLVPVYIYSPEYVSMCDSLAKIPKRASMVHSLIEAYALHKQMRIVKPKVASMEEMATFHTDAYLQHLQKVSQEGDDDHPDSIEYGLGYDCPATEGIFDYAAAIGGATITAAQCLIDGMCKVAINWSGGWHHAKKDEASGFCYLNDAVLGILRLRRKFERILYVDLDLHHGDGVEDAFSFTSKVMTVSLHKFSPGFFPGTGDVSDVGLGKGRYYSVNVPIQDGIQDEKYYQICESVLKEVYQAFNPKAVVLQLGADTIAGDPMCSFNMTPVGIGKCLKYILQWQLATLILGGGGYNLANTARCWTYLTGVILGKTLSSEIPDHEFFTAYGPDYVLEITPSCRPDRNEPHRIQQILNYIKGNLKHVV
Method: as §2
(§4) Using the mobility shift assay, all compounds were screened in duplicate using a panel of class I and class II HDACs and a N-acetyl lysine peptide substrate. For class I HDACs, HDAC1, HDAC2, and HDAC8 were used. For class IIb HDACs, HDAC6 and to HDAC10 were used. Compounds were incubated for 18-24 hrs and the percent inhibition (avg. n=2) relative to a solvent (DMSO) control treatment of each compound determined through measurement of substrate conversion.

[4] = target: T4, recombinant human HDAC10 (Homo sapiens, UniProt Q969S8); assay: Caliper mobility shift deacetylase assay, HDAC10; type: biochemical; conditions: at the indicated concentration (8-40 μM); avg. n = 2; relative to DMSO
T4 sequence (Q969S8 1-669): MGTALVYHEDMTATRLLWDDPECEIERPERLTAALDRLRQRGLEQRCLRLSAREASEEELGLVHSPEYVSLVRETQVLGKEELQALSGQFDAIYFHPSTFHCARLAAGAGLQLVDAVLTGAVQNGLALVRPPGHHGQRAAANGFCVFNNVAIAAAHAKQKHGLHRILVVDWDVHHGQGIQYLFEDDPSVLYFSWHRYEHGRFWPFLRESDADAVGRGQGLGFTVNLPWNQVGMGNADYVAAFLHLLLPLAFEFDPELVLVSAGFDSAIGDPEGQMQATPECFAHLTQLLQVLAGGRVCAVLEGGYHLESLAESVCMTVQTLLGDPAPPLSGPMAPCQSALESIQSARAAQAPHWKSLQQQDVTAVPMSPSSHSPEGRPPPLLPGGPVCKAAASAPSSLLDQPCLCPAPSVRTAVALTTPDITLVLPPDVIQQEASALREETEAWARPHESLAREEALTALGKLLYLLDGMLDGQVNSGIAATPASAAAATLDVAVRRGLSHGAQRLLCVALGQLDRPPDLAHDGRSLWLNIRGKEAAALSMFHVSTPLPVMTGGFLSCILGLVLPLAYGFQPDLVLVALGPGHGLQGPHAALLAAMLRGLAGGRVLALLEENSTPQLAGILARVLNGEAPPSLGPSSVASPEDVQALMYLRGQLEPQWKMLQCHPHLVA
Method: as §2, §4

[5] = target: T5, recombinant human HDAC6 (Homo sapiens, UniProt Q9UBN7); assay: Caliper mobility shift deacetylase assay, HDAC6; type: biochemical; conditions: at the indicated concentration (8-40 μM); avg. n = 2; relative to DMSO
T5 sequence (Q9UBN7 1-1215): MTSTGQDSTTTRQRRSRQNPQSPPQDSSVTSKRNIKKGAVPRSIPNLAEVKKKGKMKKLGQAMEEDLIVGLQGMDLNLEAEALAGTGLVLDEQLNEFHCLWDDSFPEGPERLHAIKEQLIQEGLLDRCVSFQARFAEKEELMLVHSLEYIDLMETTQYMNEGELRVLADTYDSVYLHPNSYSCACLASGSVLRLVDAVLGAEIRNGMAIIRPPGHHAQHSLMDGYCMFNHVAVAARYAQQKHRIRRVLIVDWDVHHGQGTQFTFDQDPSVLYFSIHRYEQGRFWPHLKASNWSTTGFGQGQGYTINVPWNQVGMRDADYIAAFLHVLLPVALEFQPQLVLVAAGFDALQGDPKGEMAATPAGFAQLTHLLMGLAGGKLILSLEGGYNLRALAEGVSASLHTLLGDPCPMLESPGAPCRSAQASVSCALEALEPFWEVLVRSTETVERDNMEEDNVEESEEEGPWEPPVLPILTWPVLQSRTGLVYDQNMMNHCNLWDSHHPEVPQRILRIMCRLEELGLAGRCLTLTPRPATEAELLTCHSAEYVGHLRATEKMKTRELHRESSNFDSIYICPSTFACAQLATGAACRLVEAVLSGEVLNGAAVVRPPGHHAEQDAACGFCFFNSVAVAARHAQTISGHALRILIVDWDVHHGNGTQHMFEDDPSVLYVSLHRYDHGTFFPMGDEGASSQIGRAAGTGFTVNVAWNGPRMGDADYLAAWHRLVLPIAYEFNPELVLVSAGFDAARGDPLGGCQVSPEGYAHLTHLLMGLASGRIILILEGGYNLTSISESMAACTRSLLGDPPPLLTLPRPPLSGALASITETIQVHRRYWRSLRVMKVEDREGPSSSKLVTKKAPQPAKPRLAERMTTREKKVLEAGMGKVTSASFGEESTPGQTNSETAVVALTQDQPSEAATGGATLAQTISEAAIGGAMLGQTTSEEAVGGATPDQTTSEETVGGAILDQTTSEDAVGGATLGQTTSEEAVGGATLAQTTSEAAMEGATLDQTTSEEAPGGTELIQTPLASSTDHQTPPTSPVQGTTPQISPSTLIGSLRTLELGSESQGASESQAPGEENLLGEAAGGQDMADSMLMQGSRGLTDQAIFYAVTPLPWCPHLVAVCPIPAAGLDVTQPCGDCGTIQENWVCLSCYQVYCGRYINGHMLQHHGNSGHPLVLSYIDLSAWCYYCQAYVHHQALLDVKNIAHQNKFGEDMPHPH
Method: as §2, §4

[6] = tested on: brain-derived neurotrophic factor (BDNF) expression in glioma cell line (C6); assay: BDNF expression in glioma cell line (C6); type: cell-based; conditions: submicromolar concentrations, data not shown
[7] = tested on: primary cortical neurons; assay: γH2AX and Ki-67 immunostaining of primary cortical neurons treated with HDAC1 inhibitor; type: cell-based; conditions: 1 μM, 24 h, compared to vehicle (DMSO) controls
Method: (A, B) Primary cortical neurons were transfected with either HDAC1 siRNA or random sequence siRNA, along with GFP at a 7:1 ratio to label transfected neurons. Cells were fixed at 24 h, 48 h, and 72 h post-transfection and immunostained for γH2AX. GFP-positive neurons were scored for γH2AX immunoreactivity and for cell death based on nuclear condensation and neuritic integrity, as described in Methods. (A) Representative micrographs. HDAC1 siRNA or control (random sequence) siRNA transfected neurons are indicated by arrows. The HDAC1 siRNA transfected neurons display neuritic breakage. The inset is a magnification of the γH2AX staining of the neuron indicated by arrow and asterisk, showing γH2AX foci of varying sizes. Percentage of γH2AX and cell death are shown as averages from multiple sets ±S.D. It was noted that transfection of control siRNA per se appeared to cause a low but detectable level of γH2AX immunoreactivity and cell death. […] Controls were treated with equal amounts of vehicle (DMSO). Total numbers of γH2AX and Ki-67 positive neurons were quantified over 20 microscope fields (field diameter ˜900 μm). Scale bar=100 μm. […] Scale bar=[…].
Our findings raised the possibility that p25/cdk5 may cause both cell cycle reentry and DNA damage through inhibition of HDAC1 activity. We examined the effects of siRNA-mediated knockdown or pharmacological inhibition of HDAC1.

[8] = tested on: WT mice; assay: Contextual fear conditioning in WT mice; type: in vivo, mouse
Method: Fear conditioning. Fear conditioning experiments were carried out as previously described (Kim et al., 2007), using a fear conditioning apparatus (TSE Systems, Midland, Mich.).

[9] = tested on: leukemia patients; conditions: phase I clinical trial; cited from earlier work

T1 sequence (Q13547 whole entry): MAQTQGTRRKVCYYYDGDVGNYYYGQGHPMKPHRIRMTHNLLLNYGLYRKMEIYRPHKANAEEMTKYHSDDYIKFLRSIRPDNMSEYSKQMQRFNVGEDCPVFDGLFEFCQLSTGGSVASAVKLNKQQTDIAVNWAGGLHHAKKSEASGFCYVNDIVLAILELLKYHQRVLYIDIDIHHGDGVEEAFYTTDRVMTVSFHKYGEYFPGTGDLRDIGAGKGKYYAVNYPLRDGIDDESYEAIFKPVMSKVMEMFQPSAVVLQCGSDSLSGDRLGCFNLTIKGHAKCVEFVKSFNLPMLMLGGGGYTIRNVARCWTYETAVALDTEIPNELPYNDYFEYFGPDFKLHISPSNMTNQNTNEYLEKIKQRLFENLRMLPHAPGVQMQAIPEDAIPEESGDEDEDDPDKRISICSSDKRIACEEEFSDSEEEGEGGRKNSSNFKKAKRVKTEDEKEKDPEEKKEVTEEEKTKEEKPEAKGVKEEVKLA
T2 sequence (Q92769 whole entry): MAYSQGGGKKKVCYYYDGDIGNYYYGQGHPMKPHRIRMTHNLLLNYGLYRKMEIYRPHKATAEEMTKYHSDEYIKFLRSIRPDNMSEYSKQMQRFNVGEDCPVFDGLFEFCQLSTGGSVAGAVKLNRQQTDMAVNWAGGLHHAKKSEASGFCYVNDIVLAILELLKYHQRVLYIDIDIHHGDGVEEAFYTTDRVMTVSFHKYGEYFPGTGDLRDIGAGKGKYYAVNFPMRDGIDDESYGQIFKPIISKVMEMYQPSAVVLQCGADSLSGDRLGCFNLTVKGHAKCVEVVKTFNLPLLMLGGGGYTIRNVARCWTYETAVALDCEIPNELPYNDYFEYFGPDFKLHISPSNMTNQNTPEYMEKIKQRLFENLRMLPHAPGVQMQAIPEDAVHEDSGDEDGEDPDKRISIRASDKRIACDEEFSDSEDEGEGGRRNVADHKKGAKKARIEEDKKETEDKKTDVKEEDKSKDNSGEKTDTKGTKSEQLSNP

Row | Compound | HDAC1 % activation of deacetylase activity [1] | HDAC2 % activation of deacetylase activity [2] | HDAC8 % activation of deacetylase activity [3] | HDAC10 % activation of deacetylase activity [4] | HDAC6 % activation of deacetylase activity [5] | expression of brain-derived neurotrophic factor (BDNF) [6] | aberrant expression of Ki-67 (Ki-67 positive neurons) [7] | double strand DNA breaks (γH2AX positive neurons) [7] | freezing behavior in contextual fear conditioning ([8]; 25 mg/kg IP daily for 10 days, vs saline) | associative learning capability (contextual fear conditioning) ([8]; 12.5 or 25 mg/kg IP daily for 10 days) | dose-limiting toxicity (DLT) [9]
1 | CC(C)=CCC[C@]1(C)C=Cc2c(O)c3c(c(CC=C(C)C)c2O1)O[C@]12C(=C[C@@H]4C[C@H]1C(C)(C)O[C@@]2(C/C=C(/C)C(=O)O)C4=O)C3=O [gambogic acid] | 22% | −5% | −8% | 13% | −63% |  |  |  |  |  | 
2 | ginkgetin K [genxgetin K] | 42% | −7% | −3% | 56% | −18% |  |  |  |  |  | 
3 | COC(=O)[C@H]1[C@H]2C[C@H]3c4[nH]c5ccccc5c4CCN3C[C@H]2CC[C@@H]1O [alpha-yohimbine] | 5% | −5% | 0% | 1% | −2% |  |  |  |  |  | 
4 | O=C(CCCCCCC(=O)Nc1ccccc1)NO [SAHA, suberoylanilide hydroxamic acid] |  |  |  |  |  | induced expression |  |  |  |  | 
5 | COc1ccc(-c2cc(=O)c3c(O)cc(O)c(-c4cc(-c5cc(=O)c6c(O)cc(OC)cc6o5)ccc4OC)c3o2)cc1 [sciadopitysin] | 19% | −4% | 0% | 19% | −5% |  |  |  |  |  | 
6 | tetrahydrogamboic acid | 11% | −6% | −1% | 13% | −10% |  |  |  |  |  | 
7 | CC(=O)N(O)CCCCCNC(=O)CCC(=O)N(O)CCCCCNC(=O)CCC(=O)N(O)CCCCCN [deferoxamine] | 8% | −3% | 4% | 2% | −5% |  |  |  |  |  | 
8 | Nc1ccccc1NC(=O)c1ccc(CNC(=O)OCc2cccnc2)cc1 [MS-275] |  |  |  |  |  |  | 1.8 fold increase | 8.1 fold increase | reduced freezing behavior | impaired associative learning capability | neurologic toxicity manifesting as unsteady gait and somnolence
9 | CC1=NN(c2ccc(Br)cc2Br)C(=O)/C1=C(/C)NCc1ccccc1 [TAM-12] | 5% | −1% | 2% | −3% | −4% |  |  |  |  |  | 
10 | O=c1c(O)cc([C@H]2Oc3cc(O)cc(O)c3C[C@H]2O)cc2c([C@H]3Oc4cc(O)cc(O)c4C[C@H]3O)cc(O)c(O)c12 [theaflavin] | 5% | −8% | −10% | 0% | −79% |  |  |  |  |  | 
